Source: DBAASP
Converted amounts (≈) assume the structure as drawn.

Assays:
Assay in all cases: ≥ marks a high value that may be exact or a test limit, other limits are often not marked, values filed in µg/mL are converted to µM
[1] = tested on: Bacillus subtilis ATCC 6051
[2] = tested on: Bacillus licheniformis ATCC 14580
[3] = tested on: Bacillus cereus ATCC 14579
[4] = tested on: Salmonella enterica ATCC H9812
[5] = tested on: Staphylococcus aureus ATCC 29213
[6] = tested on: Bacillus amyloliquefaciens ATCC 23842
[7] = tested on: Enterococcus faecalis 1F-1
[8] = tested on: Proteus mirabilis ATCC 35659
[9] = tested on: Pseudomonas aeruginosa PAO1
[10] = tested on: Escherichia coli ATCC 25922
[11] = tested on: Enterococcus faecium 5F-10
[12] = tested on: Staphylococcus epidermidis ATCC 12228
[13] = tested on: Staphylococcus aureus ATCC 25923
[14] = tested on: Trichophyton rubrum ATCC 28189
[15] = tested on: Candida albicans ATCC 90028
[16] = tested on: Bacillus megaterium NRRL B-4272
[17] = tested on: Bacillus subtilis ATCC 6633
[18] = tested on: Escherichia coli ATCC 10536
[19] = tested on: Staphylococcus aureus ATCC 9144
[20] = tested on: Klebsiella pneumoniae ATCC 27736
[21] = tested on: Trichophyton mentagrophytes
[22] = tested on: Candida parapsilosis ATCC 22019
[23] = tested on: Pseudomonas aeruginosa ATCC BAA-427
Aspergillus fumigatus = tested on: Aspergillus fumigatus
Bacillus cereus = tested on: Bacillus cereus
[24] = tested on: Escherichia coli ATCC 9637
Sporothrix schenckii = tested on: Sporothrix schenckii

CC(C)C[C@H](NC(=O)[C@H](CC(C)C)NC(=O)[C@@H](N)CCC(=O)O)C(=O)N[C@@H](CO)C(=O)N[C@@H](CCCN=C(N)N)C(=O)N[C@H](C(=O)O)C(C)C [ELLSRV]
MIC [1]: ≥ 179 µM | MIC [2]: ≥ 179 µM | MIC [3]: ≥ 179 µM | MIC [4]: ≥ 89.4 µM | MIC [5]: > 179 µM | MIC [6]: ≥ 179 µM | MIC [7]: ≥ 179 µM | MIC [8]: ≥ 179 µM | MIC [9]: > 179 µM | MIC [10]: 89.4 µM (≈ 64 µg/mL) | MIC [11]: ≥ 179 µM

CC[C@H](C)[C@H](NC(=O)[C@H](Cc1c[nH]c2ccccc12)NC(=O)[C@H](CCCCN)NC(=O)[C@H](Cc1cnc[nH]1)NC(=O)[C@H](Cc1ccccc1)NC(=O)[C@H](CCC(=O)O)NC(=O)[C@H](CCCN=C(N)N)NC(=O)[C@H](CC(C)C)NC(=O)[C@@H](N)Cc1ccccc1)C(=O)N[C@@H](CCC(=O)O)C(=O)N[C@@H](CCCN=C(N)N)C(=O)N[C@H](C(=O)N[C@H](C(=O)NCC(=O)N[C@@H](Cc1c[nH]c2ccccc12)C(=O)N[C@@H](CC(C)C)C(=O)NCC(=O)N[C@@H](CCCCN)C(=O)N[C@H](C(=O)N[C@@H](Cc1ccccc1)C(N)=O)C(C)C)C(C)C)C(C)C [FLREFHKWIERVVGWLGKVF]
MIC [12]: 21.3 µM (≈ 54.3 µg/mL) | MIC [13]: 32 µM (≈ 81.5 µg/mL) | MIC [14]: ≥ 256 µM | MIC [15]: ≥ 32 µM

CC[C@H](C)[C@H](NC(=O)[C@H](Cc1ccccc1)NC(=O)[C@H](CCCCN)NC(=O)[C@H](CCCCN)NC(=O)[C@H](Cc1ccccc1)NC(=O)[C@H](CO)NC(=O)[C@H](Cc1cnc[nH]1)NC(=O)[C@H](CC(C)C)NC(=O)[C@H](C)NC(=O)[C@H](CCCCN)NC(=O)CNC(=O)CNC(=O)CN)C(=O)N[C@@H](CCCCN)C(=O)N[C@@H](C)C(=O)N[C@@H](Cc1ccccc1)C(=O)N[C@H](C(=O)NCC(=O)N[C@@H](CCC(=O)O)C(=O)N[C@H](C(=O)N[C@@H](CCSC)C(=O)N[C@@H](CC(N)=O)C(=O)N[C@@H](CO)C(N)=O)[C@@H](C)CC)C(C)C [GGGKALHSFKKFIKAFVGEIMNS]
MIC [16]: 12 µM (≈ 29.6 µg/mL) | MIC [17]: 10 µM (≈ 24.7 µg/mL) | MIC [18]: 5 µM (≈ 12.3 µg/mL) | MIC [19]: ≥ 40 µM

CC(C)C[C@H](NC(=O)[C@H](CC(C)C)NC(=O)[C@H](CCCN=C(N)N)NC(=O)[C@H](CCCN=C(N)N)NC(=O)[C@H](CC(C)C)NC(=O)[C@H](Cc1c[nH]c2ccccc12)NC(=O)[C@H](CCCN=C(N)N)NC(=O)[C@H](CC(C)C)NC(=O)[C@H](CC(C)C)NC(=O)[C@H](CCCN=C(N)N)NC(=O)[C@H](CCCN=C(N)N)NC(=O)[C@@H](N)CC(C)C)C(=O)N[C@@H](CCCN=C(N)N)C(=O)N[C@@H](CCCN=C(N)N)C(=O)O [LRRLLRWLRRLLRR]
MIC [20]: 1.59 µM (≈ 3.15 µg/mL) | MIC [21]: 3.16 µM (≈ 6.25 µg/mL) | MIC [13]: 0.789 µM (≈ 1.56 µg/mL) | MIC [22]: 3.16 µM (≈ 6.25 µg/mL) | MIC [23]: 12.6 µM (≈ 25 µg/mL) | MIC (Aspergillus fumigatus): 3.16 µM (≈ 6.25 µg/mL) | MIC (Bacillus cereus): 1.59 µM (≈ 3.15 µg/mL) | MIC [24]: 12.6 µM (≈ 25 µg/mL) | MIC (Sporothrix schenckii): 1.59 µM (≈ 3.15 µg/mL)
